Assays:
[1] = test system: CD4^+ T cells, Treg cells, effector/memory CD4^+ T cells; assay: T cell subsets in spleen, draining lymph nodes and CNS of R-EAE mice (FACS, immunochemical staining); type: in vivo, mouse
Text: Mice were anesthetized with nembutal and perfused with phosphate-buffered saline (PBS). Brains and spinal cords from each mouse were frozen in OCT (Miles Laboratories; Elkhart, Ind.) in liquid nitrogen. Tissue from the lower lumbar region of the spinal cord was sectioned at 6 μm on a Reichert-Jung 1800 cryotome and mounted on Superfrost Plus electrostatically charged slides. Cross-sections (10 μm thick for brains and 6 μm for spinal cords) from longitudinal sections of brain and spinal cord were performed. Tissues were stained with biotin-conjugated antibody to mouse CD4, PLP and FoxP3. Positive staining of biotinylated antibodies was visualized by a Tyramide Signal Amplification (TSA) Direct kit (NEN, Boston, Mass.) according to manufacturer's instructions and fluorescein anti-mouse IgG (Vector Laboratories). Sections were counterstained with 4,6-diamidino-2-phenylindole (DAPI; Sigma-Aldrich) and then coverslipped with Vectashieldmounting medium (Vector Laboratories). Slides were examined and images were acquired via epifluorescence using the SPOT RT camera (Diagnostic Instruments, Sterling Heights, Mich.). Sections from each group were analyzed at 40 or 100× magnification.
The effect of B7-H4-Ig treatment on the number of Treg cells in vivo was analyzed in this study. The effect of B7-H4-Ig on the number and phenotype of CD4^+ T cells infiltrating into the CNS following B7-H4-Ig treatment, the relevant site for activity in vivo, was determined. […] SJL mice were first immunized with PLP139-151 peptide. B7-H4-Ig treatment started during remission (Day 23). Mice received mouse Control IgG, 100 μg, or B7-H4-Ig at either 60 or 300 μg, 3 times per week for 2 weeks or 4 weeks. Half of the animals (5 mice from each group) were euthanized on Day 35, after 6 doses of B7-H4-Ig. The rest of the animals (5 mice from each group) were euthanized on Day 50, after 12 doses of B7-H4-Ig. Mouse spleens, draining lymph nodes, spinal cords and brains were collected, tissues were made into a single cell suspension and counted via the use of a hemocytometer, and analyzed for the presence of effector/memory CD4^+ T cells (CD4^+CD44^+) and Treg cells (CD4^+CD25^+FoxP3^+). Whole cerebellar and lumbar spinal cord tissue samples were snap frozen and processed as described above to analyze the number of CD4^+ and FoxP3^+ cells present within the CNS by histology.
Cells isolated from spleen, draining lymph node and also lumbar spinal cord were stained for CD4, CD44 and FoxP3 followed by FACS analysis to obtain the number of total CD4^+ T cells, Treg (CD4^+/Foxp3^+) and effector/memory CD4^+ T cells (CD4^+/CD44^+). The data is presented in FIGS. 43A, 43B, and 43C as the mean number of cells for each phenotype from individual mouse. […] Similar data was obtained after the full course of 12 treatments.

[2] = test system: CD4^+CD62L^+ naïve T cells; assay: In vitro Th17 polarization: proliferation and cytokine production; type: cell-based, mouse; settings: 0, 0.1, 1 or 10 μg/mL in solution
Description: Mouse splenocytes were first removed isolated from DO11.10 mice, which express an MHC class II restricted T cell receptor specific for OVA323-339. Mouse CD4^+ T cells were purified using a Miltenyi CD4^+ T cell negative isolation kit (Cat#130-090-860). Naïve CD4^+ T cells were further purified using the Miltenyi anti-CD62L positive selection magnetic beads (cat#130-049-701).
CD4^+ CD62L^+ naïve T cells with or without CD25^+ T cells were cultured in serum free HL-1 media in the presence of rTGF-β (10 ng/mL), IL-6 (50 ng/mL), IL-23 (4 ng/mL), anti-IL-4 (1 μg/mL), anti-IFN-γ (1 μg/mL) and anti-IL-2 (1 μg/mL). To provide murine B7-H4-Ig in an immobilized format, 96-well flat bottom plates were first coated with murine B7-H4-Ig, 100 μl per well at 1 μg/mL, and incubated at 37° C. for 2 hours. […] For non-specific antigen activation, Mouse CD3/CD28 T Cell Expander beads (Dynabeads®; Invitrogen, Cat#11452D) was added into each well, at a 1:1 cell to bead ratio. […]
[^3H]-Thymidine (1 μCi/well) was added into each well 24 hr post co-incubation. Proliferation was determined by uptake of [^3H]-thymidine detected at 48 hr post [^3H]-thymidine addition using a Topcount Microplate Scintillation Counter (Packard Instruments, Meridan, Conn.). Results are expressed as the mean of triplicate cultures±SEM. […]

B7-H4-Ig: B7-H4 extracellular domain fused to Ig Fc; bare label is the human protein in Example 3, murine protein in Examples 1, 2, 5, 7-11
amount of Treg cells in the CNS ([1]; FIG. 43C): appeared constant | number of Treg (CD4+/FoxP3+) cells within the spleen and lymph node ([1]; R-EAE mice treated during remission (FIGS. 43A, 43B)): remarkably increased | level of demyelination via anti-PLP staining ([1]; control IgG vs B7-H4-Ig treated mice): no significant difference in the level of demyelination | number of FoxP3+ cells within the CNS (histology) ([1]; lumbar spinal cord cross sections): increases the number of FoxP3^+ cells within the CNS | percentage of Treg cells among CD4+ T cells in the CNS ([1]; vs Control IgG injected mice (FIG. 44)): significantly higher | effector/memory T cells (CD4+/CD44+) within the CNS ([1]; vs Control IgG treated mice (FIG. 43C)): decreased

Human B7-H4-Ig: human B7-H4 extracellular domain fused to hinge, CH2 and CH3 regions of human immunoglobulin Cγ1 chain; representative SEQ ID NOs:114-137
IL-17 production in Th17 cells ([2]; anti-CD3/CD28 beads (FIG. 28)): reduced | murine Th17 proliferation ([2]; anti-CD3/CD28 beads, dose dependent (FIG. 26)): blocked murine Th1/Th17 proliferation

Source: US9011853B2, “B7-H4 fusion proteins and methods of use thereof” (Amplimmune, Inc., priority 2009, dated 2015)
